Results on 14 molecules are retold here after patent US11331314B2, “Amine substituted triazole derivatives and uses thereof” (Bayer Pharma Aktiengesellschaft, priority 2017, dated 2022).

SMILES strings stand for the structures.

In experiment [1] the target is T1, human V2 receptor (Homo sapiens, UniProt P30518).
T1 construct: expressed in transfected cells; host or cells: CHO K1 (ATCC) expressing firefly luciferase under a CRE-responsive promoter
The experiment in a line: Cellular in vitro assay for determining vasopressin receptor activity, V2 receptor cell line (CRE-luciferase). The format is cell-based. Conditions: CHO cell line transfected with the human V2 receptor; agonist [Arg8]-vasopressin at EC50 concentration; read-out: IC50 hV2. As for the experimental part: (§1) B-1. Cellular In Vitro Assay for Determining Vasopressin Receptor Activity
(§2) The identification of agonists and antagonists of the V1a and V2 vasopressin receptors from humans, rats and dogs as well as the quantification of the activity of the compounds of the invention is carried out using recombinant cell lines. These cell lines originally derive from a hamster's ovary epithelial cell (Chinese Hamster Ovary, CHO K1, ATCC: American Type Culture Collection, Manassas, Va. 20108, USA). The test cell lines constitutively express the human, rat or dog V1a or V2 receptors. In case of the Gαq-coupled V1a receptors, cells are also stably transfected with a modified form of the calcium-sensitive photoproteins aequorin (human and rat V1a) or obelin (dog V1a), which, after reconstitution with the cofactor coelenterazine, emit light when there are increases in free calcium concentrations [Rizzuto R, Simpson A W, Brini M, Pozzan T, Nature 358, 325-327 (1992); Illarionov B A, Bondar V S, Illarionova V A, Vysotski E S, Gene 153 (2), 273-274 (1995)]. The resulting vasopressin receptor cells react to stimulation of the recombinantly expressed V1a receptors by intracellular release of calcium ions, which can be quantified by the resulting photoprotein luminescence. The Gs-coupled V2 receptors are stably transfected into cell lines expressing the gene for firefly luciferase under control of a CRE-responsible promoter. Activation of V2 receptors induces the activation of the CRE-responsive promoter via cAMP increase, thereby inducing the expression of firefly luciferase. The light emitted by photoproteins of V1a cell lines as well as the light emitted by firefly luciferase of V2 cell lines corresponds to the activation or inhibition of the respective vasopressin receptor. The bioluminescence of the cell lines is detected using a suitable luminometer [Milligan G, Marshall F, Rees S, Trends in Pharmacological Sciences 17, 235-237 (1996)].
Vasopressin V2 Receptor Cell Lines:
On the day before the assay, the cells are plated out in culture medium (DMEM/F12, 2% FCS, 2 mM glutamine, 10 mM HEPES) in 384-well microtiter plates and kept in a cell incubator (96% humidity, 5% v/v CO2, 37° C.). On the day of the assay, test compounds in various concentrations and the agonist [Arg^8]-vasopressin at EC50 concentration are added together to the wells, and plates are incubated for 3 hours in a cell incubator. Upon addition of the cell lysis reagent Triton™ and the substrate luciferin, luminescence of firefly luciferase is measured in a luminometer.
(§3) Table 1A below lists individual IC50 values for the compounds of the invention (including racemic mixtures as well as separated enantiomers) that were obtained from cell lines transfected with the human V1a or V2 receptor: […]

In experiment [2] the target is human V1a receptor (Homo sapiens, UniProt P37288). Briefly: Cellular in vitro assay for determining vasopressin receptor activity, V1a receptor cell line (photoprotein luminescence). The format is cell-based. Conditions: for IC50: CHO cell line transfected with the human V1a receptor, agonist [Arg8]-vasopressin at EC50 concentration, read-out: IC50 hV1a; for ratio IC50 hV2/hV1a: selectivity ratio of the cellular IC50 values. How it is done:
as §1, §2
Vasopressin V1a Receptor Cell Lines:
On the day before the assay, the cells are plated out in culture medium (DMEM/F12, 2% FCS, 2 mM glutamine, 10 mM HEPES, 5 μg/ml coelenterazine) in 384-well microtiter plates and kept in a cell incubator (96% humidity, 5% v/v CO2, 37° C.). On the day of the assay, test compounds in various concentrations are placed for 10 minutes in the wells of the microtiter plate before the agonist [Arg^8]-vasopressin at EC50 concentration is added. The resulting light signal is measured immediately in a luminometer.
as §3

T1 sequence (P30518 whole entry): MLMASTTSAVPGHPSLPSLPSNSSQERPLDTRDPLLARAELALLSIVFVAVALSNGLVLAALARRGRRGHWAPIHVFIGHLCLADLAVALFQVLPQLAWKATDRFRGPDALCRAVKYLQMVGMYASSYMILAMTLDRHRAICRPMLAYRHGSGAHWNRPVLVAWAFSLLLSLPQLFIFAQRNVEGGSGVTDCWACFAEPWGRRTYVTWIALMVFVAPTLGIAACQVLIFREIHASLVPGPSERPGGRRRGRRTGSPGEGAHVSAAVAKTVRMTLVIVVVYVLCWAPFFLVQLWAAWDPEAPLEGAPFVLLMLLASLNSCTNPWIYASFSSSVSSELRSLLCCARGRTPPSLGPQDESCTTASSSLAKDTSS
Chain of human V1a receptor (P37288 whole entry): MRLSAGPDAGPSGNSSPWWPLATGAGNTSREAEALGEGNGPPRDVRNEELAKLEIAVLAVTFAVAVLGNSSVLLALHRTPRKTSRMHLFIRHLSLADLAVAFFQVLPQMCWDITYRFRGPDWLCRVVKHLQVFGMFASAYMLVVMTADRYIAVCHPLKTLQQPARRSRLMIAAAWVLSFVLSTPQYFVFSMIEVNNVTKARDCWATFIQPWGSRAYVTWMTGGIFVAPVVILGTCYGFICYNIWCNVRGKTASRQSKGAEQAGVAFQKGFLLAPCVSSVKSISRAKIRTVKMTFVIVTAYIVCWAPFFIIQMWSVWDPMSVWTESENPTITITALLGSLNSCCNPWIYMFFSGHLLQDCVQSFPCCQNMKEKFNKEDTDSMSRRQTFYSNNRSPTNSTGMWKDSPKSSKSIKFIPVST

Take `NC(CNc1nc(Cn2nc(-c3ccc(Cl)cc3)n(C[C@H](O)C(F)(F)F)c2=O)nn1-c1ccccc1Cl)C(F)(F)F` (mixture of isomers) [Example 6, 2-{[5-{[2-Amino-3,3,3-trifluoropropyl]amino}-1-(2-chlorophenyl)-1H-1,2,4-triazol-3-yl]methyl}-5-(4-chlorophenyl)-4-[(2S)-3,3,3-trifluoro-2-hydroxypropyl]-2,4-dihydro-3H-1,2,4-triazol-3-one]: the IC50 (in general, the concentration that gives 50% inhibition) in experiment [1] is 3.45 nM. For the same molecule, in experiment [2], the IC50 amounted to 0.39 nM and the “ratio IC50 hV2/hV1a” value is reported as 8.9.

For `NCC(O)CNc1nc(Cn2nc(-c3ccc(Cl)cc3)n(C[C@H](O)C(F)(F)F)c2=O)nn1-c1ccccc1Cl` (mixture of isomers) [Example 11, 2-{[5-{[3-Amino-2-hydroxypropyl]amino}-1-(2-chlorophenyl)-1H-1,2,4-triazol-3-yl]methyl}-5-(4-chlorophenyl)-4-[(2S)-3,3,3-trifluoro-2-hydroxypropyl]-2,4-dihydro-3H-1,2,4-triazol-3-one], in experiment [1], the IC50 worked out at 4.65 nM. In experiment [2], the IC50 worked out at 0.93 nM and the “ratio IC50 hV2/hV1a” value is recorded as 5.0.

For `O=C1NCC(CNc2nc(Cn3nc(-c4ccc(Cl)cc4)n(C[C@H](O)C(F)(F)F)c3=O)nn2-c2ccccc2Cl)O1` (mixture of isomers) [Example 12, 5-(4-Chlorophenyl)-2-{[1-(2-chlorophenyl)-5-({[2-oxo-1,3-oxazolidin-5-yl]methyl}amino)-1H-1,2,4-triazol-3-yl]methyl}-4-[(2S)-3,3,3-trifluoro-2-hydroxypropyl]-2,4-dihydro-3H-1,2,4-triazol-3-one], the IC50 in experiment [1] turned out to be 2.45 nM. Moreover, in experiment [2], the IC50 came out at 1.2 nM and the “ratio IC50 hV2/hV1a” value is listed as 2.0.

Turning to `O=c1n(Cc2nc(N3CCC(O)(C(F)(F)F)C3)n(-c3ccccc3Cl)n2)nc(-c2ccc(Cl)cc2)n1C[C@H](O)C(F)(F)F` (mixture of isomers) [Example 13, 5-(4-Chlorophenyl)-2-({1-(2-chlorophenyl)-5-[3-hydroxy-3-(trifluoromethyl)pyrrolidin-1-yl]-1H-1,2,4-triazol-3-yl}methyl)-4-[(2S)-3,3,3-trifluoro-2-hydroxypropyl]-2,4-dihydro-3H-1,2,4-triazol-3-one], the IC50 in experiment [1] turned out to be 2.25 nM. Besides, in experiment [2], the IC50 was 0.35 nM and the “ratio IC50 hV2/hV1a” value is on record as 6.5.

Consider `O=C1NCCC1Nc1nc(Cn2nc(-c3ccc(Cl)cc3)n(C[C@H](O)C(F)(F)F)c2=O)nn1-c1ccccc1Cl` (mixture of isomers) [Example 16, 5-(4-Chlorophenyl)-2-{[1-(2-chlorophenyl)-5-{[2-oxopyrrolidin-3-yl]amino}-1H-1,2,4-triazol-3-yl]methyl}-4-[(2S)-3,3,3-trifluoro-2-hydroxypropyl]-2,4-dihydro-3H-1,2,4-triazol-3-one], for which the IC50 in experiment [1] came out at 0.82 nM. In experiment [2], the IC50 amounted to 0.33 nM and the “ratio IC50 hV2/hV1a” value is given as 2.5.

For `CC(C)(C)OC(=O)N1CCCC(O)(CNc2nc(Cn3nc(-c4ccc(Cl)cc4)n(C[C@H](O)C(F)(F)F)c3=O)nn2-c2ccccc2Cl)CC1` (mixture of isomers) [Example 19, tert-Butyl 4-({[1-(2-chlorophenyl)-3-({3-(4-chlorophenyl)-5-oxo-4-[(2S)-3,3,3-trifluoro-2-hydroxypropyl]-4,5-dihydro-1H-1,2,4-triazol-1-yl}methyl)-1H-1,2,4-triazol-5-yl]amino}methyl)-4-hydroxyazepane-1-carboxylate], the IC50 in experiment [1] came out at 38 nM. Further, in experiment [2], the IC50 was found to be 2.55 nM and the “ratio IC50 hV2/hV1a” value is reported as 14.9.

Consider `O=c1n(Cc2nc(NCC3(O)CCCNCC3)n(-c3ccccc3Cl)n2)nc(-c2ccc(Cl)cc2)n1C[C@H](O)C(F)(F)F` (mixture of isomers) [Example 20], for which the IC50 in experiment [1] stood at 12 nM. Moreover, in experiment [2], the IC50 was 0.42 nM and the “ratio IC50 hV2/hV1a” value is on record as 28.6.

Regarding `CC(N)(CNc1nc(Cn2nc(-c3ccc(Cl)cc3)n(C[C@H](O)C(F)(F)F)c2=O)nn1-c1ccccc1Cl)C(F)(F)F` (mixture of isomers) [Example 27, 2-{[5-{[2-Amino-3,3,3-trifluoro-2-methylpropyl]amino}-1-(2-chlorophenyl)-1H-1,2,4-triazol-3-yl]methyl}-5-(4-chlorophenyl)-4-[(2S)-3,3,3-trifluoro-2-hydroxypropyl]-2,4-dihydro-3H-1,2,4-triazol-3-one], the values for the half-inhibitory concentration (IC50) in experiment [1] and in experiment [2] were 1.28 nM and 0.35 nM, respectively. The “ratio IC50 hV2/hV1a” value in experiment [2] was found to be 3.7.

For `CC1(O)CCN(c2nc(Cn3nc(-c4ccc(Cl)cc4)n(C[C@H](O)C(F)(F)F)c3=O)nn2-c2ccccc2Cl)C1` (mixture of isomers) [Example 29, 5-(4-Chlorophenyl)-2-({1-(2-chlorophenyl)-5-[3-hydroxy-3-methylpyrrolidin-1-yl]-1H-1,2,4-triazol-3-yl}methyl)-4-[(2S)-3,3,3-trifluoro-2-hydroxypropyl]-2,4-dihydro-3H-1,2,4-triazol-3-one], the values for the IC50 in experiment [1] and in experiment [2] were 4.9 nM and 1.05 nM, respectively. In addition, the “ratio IC50 hV2/hV1a” value in experiment [2] was 4.7.

For the molecule `NC(=O)C1CN(c2nc(Cn3nc(-c4ccc(Cl)cc4)n(C[C@H](O)C(F)(F)F)c3=O)nn2-c2ccccc2Cl)CCN1` (mixture of isomers) [Example 33, 4-[1-(2-Chlorophenyl)-3-({3-(4-chlorophenyl)-5-oxo-4-[(2S)-3,3,3-trifluoro-2-hydroxypropyl]-4,5-dihydro-1H-1,2,4-triazol-1-yl}methyl)-1H-1,2,4-triazol-5-yl]piperazine-2-carboxamide], in experiment [1], the IC50 is 9.25 nM. Also, in experiment [2], the IC50 came to 0.37 nM and the “ratio IC50 hV2/hV1a” value is listed as 25.2.

Regarding `O=CN1CCC(Nc2nc(Cn3nc(-c4ccc(Cl)cc4)n(C[C@H](O)C(F)(F)F)c3=O)nn2-c2ccccc2Cl)C1` (mixture of isomers) [Example 41, 3-{[1-(2-Chlorophenyl)-3-({3-(4-chlorophenyl)-5-oxo-4-[(2S)-3,3,3-trifluoro-2-hydroxypropyl]-4,5-dihydro-1H-1,2,4-triazol-1-yl}methyl)-1H-1,2,4-triazol-5-yl]amino}pyrrolidine-1-carbaldehyde], the IC50 in experiment [1] was 7.4 nM. In experiment [2], the IC50 was determined as 0.93 nM and the “ratio IC50 hV2/hV1a” value stood at 8.0.

As to `COC1CCN(c2nc(Cn3nc(-c4ccc(Cl)cc4)n(C[C@H](O)C(F)(F)F)c3=O)nn2-c2ccccc2Cl)C1` (mixture of isomers) [Example 42, 5-(4-Chlorophenyl)-2-({1-(2-chlorophenyl)-5-[3-methoxypyrrolidin-1-yl]-1H-1,2,4-triazol-3-yl}methyl)-4-[(2S)-3,3,3-trifluoro-2-hydroxypropyl]-2,4-dihydro-3H-1,2,4-triazol-3-one], the IC50 was 1.9 nM in experiment [1] and 0.48 nM in experiment [2]. Moreover, the “ratio IC50 hV2/hV1a” value in experiment [2] amounted to 4.0.

Regarding `O=c1n(Cc2nc(N3CCC(O)C3)n(-c3ccccc3Cl)n2)nc(-c2ccc(Cl)cc2)n1C[C@H](O)C(F)(F)F` (mixture of isomers) [Example 43, 5-(4-Chlorophenyl)-2-({1-(2-chlorophenyl)-5-[3-hydroxypyrrolidin-1-yl]-1H-1,2,4-triazol-3-yl}methyl)-4-[(2S)-3,3,3-trifluoro-2-hydroxypropyl]-2,4-dihydro-3H-1,2,4-triazol-3-one], the IC50 in experiment [1] is 4.4 nM. Moreover, in experiment [2], the IC50 amounted to 0.42 nM and the “ratio IC50 hV2/hV1a” value amounted to 10.5.

In the case of `O=c1n(Cc2nc(NCC(O)C(F)(F)F)n(-c3ccccc3Cl)n2)nc(-c2ccc(Cl)cc2)n1C[C@H](O)C(F)(F)F` (mixture of isomers) [Example 53, 5-(4-Chlorophenyl)-2-{[1-(2-chlorophenyl)-5-{[3,3,3-trifluoro-2-hydroxypropyl]amino}-1H-1,2,4-triazol-3-yl]methyl}-4-[(2S)-3,3,3-trifluoro-2-hydroxypropyl]-2,4-dihydro-3H-1,2,4-triazol-3-one], the IC50 in experiment [1] amounted to 1.85 nM. In addition, in experiment [2], the IC50 came to 0.52 nM and the “ratio IC50 hV2/hV1a” value is 3.6.
